Results reported in patent US10344039B2, “Macrocyclic spirocarbamate derivatives as factor XIa inhibitors, pharmaceutically acceptable compositions and their use” (MERCK SHARP & DOHME CORP., priority 2015, dated 2019).

molecular target: T1, purified human Factor XIa (Homo sapiens, UniProt P03951); assay: Factor XIa Assay; type: biochemical; conditions: purified human Factor XIa 40 pM; substrate Z-Gly-Pro-Arg-AFC 100 μM; 50 mM HEPES pH 7.4; read-out: Hu FXIa Ki
T1 construct: purified human Factor XIa; purchased Sekisui Diagnostics
Method: The effectiveness of a compound of the present invention as an inhibitor of Coagulation Factor XIa can be determined using a relevant purified serine protease, and an appropriate synthetic substrate. The rate of hydrolysis of the chromogenic or fluorogenic substrate by the relevant serine protease was measured both in the absence and presence of compounds of the present invention. Assays were conducted at room temperature or at 37° C. […] A decrease in the rate of fluorescence change in the presence of inhibitor is indicative of enzyme inhibition. Such methods are known to one skilled in the art. The results of this assay are expressed as the inhibitory constant, Ki.
Factor XIa determinations were made in 50 mM HEPES buffer at pH 7.4 containing 150 mM NaCl, 5 mM CaCl2, and 0.1% PEG 8000 (polyethylene glycol; JT Baker or Fisher Scientific). Determinations were made using purified human Factor XIa at a final concentration of 40 pM (Sekisui Diagnostics) and he synthetic substrate, Z-Gly-Pro-Arg-AFC, TFA salt (Sigma #C0980) at a concentration of 100 μM.
Activity assays were performed by diluting a stock solution of substrate at least tenfold to a final concentration ≤0.1 Km into a solution containing enzyme or enzyme equilibrated with inhibitor. Times required to achieve equilibration between enzyme and inhibitor were determined in control experiments. Initial velocities of product formation in the absence (Vo) or presence of inhibitor (Vi) were measured. Assuming competitive inhibition, and that unity is negligible compared Km/[S], [I]/e, and [I]/e (where [S], [I], and e respectively represent the total concentrations, of substrate, inhibitor and enzyme), the equilibrium constant (Ki) for dissociation of the inhibitor from the enzyme can be obtained from the dependence of Vo/Vi on [I] shown in the following equation. Vo/Vi=1+[I]/Ki
The activities shown by this assay indicate that the compounds of the invention may be therapeutically useful for treating or preventing various cardiovascular and/or cerebrovascular thromboembolic conditions in patients suffering from unstable angina, acute coronary syndrome, refractory angina, myocardial infarction, transient ischemic attacks, atrial fibrillation, stroke such as thrombotic stroke or embolic stroke, venous thrombosis, coronary and cerebral arterial thrombosis, cerebral and pulmonary embolism, atherosclerosis, deep vein thrombosis, disseminated intravascular coagulation, and reocclusion or restenosis of recanalized vessels. The Ki values measured for each of the example compounds of the invention using this assay are reported in the tables above (as “Hu FXIa Ki (nM)”).

T1 sequence (P03951 388-625 limits assumed): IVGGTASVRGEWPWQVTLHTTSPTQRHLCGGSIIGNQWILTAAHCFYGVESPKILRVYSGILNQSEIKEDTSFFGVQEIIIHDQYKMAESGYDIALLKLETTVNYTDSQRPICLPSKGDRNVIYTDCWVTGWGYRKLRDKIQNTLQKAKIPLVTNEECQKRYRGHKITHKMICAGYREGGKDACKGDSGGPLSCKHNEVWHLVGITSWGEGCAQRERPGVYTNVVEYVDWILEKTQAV
T1 sequence (P03951 19-387 partner limits assumed): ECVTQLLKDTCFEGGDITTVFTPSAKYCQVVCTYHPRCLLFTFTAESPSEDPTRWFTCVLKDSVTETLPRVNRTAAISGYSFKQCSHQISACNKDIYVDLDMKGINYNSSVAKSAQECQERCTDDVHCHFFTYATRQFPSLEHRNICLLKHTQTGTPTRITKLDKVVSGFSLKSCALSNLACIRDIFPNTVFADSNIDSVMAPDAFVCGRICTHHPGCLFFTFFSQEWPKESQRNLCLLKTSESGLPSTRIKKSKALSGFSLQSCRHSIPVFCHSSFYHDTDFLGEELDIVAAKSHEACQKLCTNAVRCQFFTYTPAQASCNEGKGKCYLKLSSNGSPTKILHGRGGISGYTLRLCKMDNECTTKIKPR

Question: `COC(=O)Nc1ccc2c(c1)NC(=O)CCCCC[C@H](C(=O)N1CCC[C@@]3(C1)OC(=O)Nc1ccc(Cl)c(F)c13)c1cc-2ccn1` [Example 19b, methyl ((S)-10-((R)-6-chloro-5-fluoro-2-oxo-1,2-dihydrospiro[benzo[d][1,3]oxazine-4,3′-piperidine]-1′-carbonyl)-4-oxo-3-aza-1(4,2)-pyridina-2(1,2)-benzenacyclodecaphane-2^4-yl)carbamate] was tested. Which Ki did it give?
Answer: > 875 nM

Question: Which Ki does the source give for `COC(=O)Nc1ccc2c(c1)NC(=O)CCCCC[C@@H](C(=O)N1CCC[C@@]3(C1)OC(=O)Nc1ccc(Cl)cc13)c1cc-2ccn1` [Example 16b, methyl ((R)-10-((R)-6-chloro-2-oxo-1,2-dihydrospiro[benzo[d][1,3]oxazine-4,3′-piperidine]-1′-carbonyl)-4-oxo-3-aza-1(4,2)-pyridina-2(1,2)-benzenacyclodecaphane-2^4-yl)carbamate] here?
Answer: 284 nM

Question: For `COC(=O)Nc1ccc2c(c1)NC(=O)CCCC[C@H](C(=O)N1CC[C@@]3(C1)OC(=O)Nc1ccc(Cl)cc13)c1cc-2ccn1` [Example 17b, methyl ((S)-9-((R)-6-chloro-2-oxo-1,2-dihydrospiro[benzo[d][1,3]oxazine-4,3′-pyrrolidine]-1′-carbonyl)-4-oxo-3-aza-1(4,2)-pyridina-2(1,2)-benzenacyclononaphane-2^4-yl)carbamate], which Ki is on record?
Answer: > 8750 nM

Question: For `COC(=O)Nc1ccc2c(c1)NC(=O)CC/C=C/C[C@H](C(=O)N1CCC[C@@]3(C1)OC(=O)Nc1ccc(Cl)c(F)c13)c1cc-2ccn1` [Example 21b, methyl ((S,E)-10-((R)-6-chloro-5-fluoro-2-oxo-1,2-dihydrospiro[benzo[d][1,3]oxazine-4,3′-piperidine]-1′-carbonyl)-4-oxo-3-aza-1(4,2)-pyridina-2(1,2)-benzenacyclodecaphanen-2^4-yl)carbamate], which Ki is on record?
Answer: > 875 nM

Question: `O=C1Nc2ccc(Cl)c(F)c2[C@@]2(CCN(C(=O)C3CCCCC(C(=O)O)Nc4ccc(F)cc4-c4ccnc3c4)C2)O1` (single isomer, unassigned) [Example 37a] was tested. Which Ki did it give?
Answer: > 875 nM

Question: For `COC(=O)Nc1ccc2c(c1)NC(=O)[C@@H](C)CCC[C@H](NC(=O)N1CCC[C@@]3(C1)OC(=O)Nc1ccc(Cl)cc13)c1cc-2ccn1` [Example 39, methyl ((5S,9S)-9-((R)-6-chloro-2-oxo-1,2-dihydrospiro[benzo[d][1,3]oxazine-4,3′-piperidine]-1′-carboxamido)-5-methyl-4-oxo-3-aza-1(4,2)-pyridina-2(1,2)-benzenacyclononaphane-2^4-yl)carbamate], which Ki is on record?
Answer: 455 nM

Question: With `COC(=O)Nc1ccc2c(c1)NC(=O)CCCCC(C(=O)N1CCC[C@@]3(C1)OC(=O)Nc1ccc(Cl)c(F)c13)c1cccc-2n1` (stereo partly drawn) [Example 24, methyl (9-((R)-6-chloro-5-fluoro-2-oxo-1,2-dihydrospiro[benzo[d][1,3]oxazine-4,3′-piperidine]-1′-carbonyl)-4-oxo-3-aza-1(2,6)-pyridina-2(1,2)-benzenacyclononaphane-2^4-yl)carbamate] as the compound, how does the Ki read?
Answer: > 875 nM

Question: With `CCOC(=O)C1CCCCC(C(=O)N2CC[C@@]3(C2)OC(=O)Nc2ccc(Cl)c(F)c23)c2cc(ccn2)-c2cc(F)ccc2N1` (single isomer, unassigned) [Example 36b] as the compound, how does the Ki read?
Answer: > 875 nM

Question: For `COC(=O)Nc1ccc2c(c1)NC(=O)CCCC[C@H](C(=O)N1CCC[C@@]3(C1)OC(=O)Nc1ccc(Cl)c(F)c13)c1nc-2c(C)[nH]1` (single isomer, unassigned) [Example 12a], which Ki is on record?
Answer: 471 nM

Question: Which Ki does the source give for `COC(=O)Nc1ccc2c(c1)NC(=O)CCCC[C@H](C(=O)N1CC[C@@]3(C1)OC(=O)Nc1ccc(Cl)c(F)c13)c1ccnc-2c1` [Example 25b, methyl ((S)-9-((R)-6-chloro-5-fluoro-2-oxo-1,2-dihydrospiro[benzo[d][1,3]oxazine-4,3′-pyrrolidine]-1′-carbonyl)-4-oxo-3-aza-1(2,4)-pyridina-2(1,2)-benzenacyclononaphane-2^4-yl)carbamate] here?
Answer: > 875 nM

Question: `CCOC(=O)C1CCCCC(C(=O)N2CCC[C@@]3(C2)OC(=O)Nc2ccc(Cl)c(F)c23)c2nc(c[nH]2)-c2ccc(NC(=O)OC)cc2N1` (single isomer, unassigned) [Example 32c] was tested. Which Ki did it give?
Answer: 536 nM

Question: With `O=C1Nc2ccc(Cl)c(F)c2[C@@]2(CCCN(C(=O)C3CCCCC(C(=O)O)Nc4ccc(F)cc4-c4ccnc3c4)C2)O1` (single isomer, unassigned) [Example 35a] as the compound, how does the Ki read?
Answer: > 875 nM

Question: `COC(=O)Nc1ccc2c(c1)NC(=O)CCCC[C@H](C(=O)N1CCC[C@@]3(C1)OC(=O)Nc1ccc(Cl)cc13)c1nc-2c(Cl)[nH]1` [Example 7b, methyl ((S,Z)-1^5-chloro-9-((R)-6-chloro-2-oxo-1,2-dihydrospiro[benzo[d][1,3]oxazine-4,3′-piperidine]-1′-carbonyl)-4-oxo-1^1H-3-aza-1(4,2)-imidazola-2(1,2)-benzenacyclononaphane-2^4-yl)carbamate] was tested. Which Ki did it give?
Answer: 1830 nM

Question: `CCOC(=O)C1CCCCC(C(=O)N2CCC[C@@]3(C2)OC(=O)Nc2ccc(Cl)c(F)c23)c2cc(ccn2)-c2cc(F)ccc2N1` (single isomer, unassigned) [Example 34c] was tested. Which Ki did it give?
Answer: 196 nM

Question: With `CCOC(=O)C1CCCCC(C(=O)N2CCC[C@@]3(C2)OC(=O)Nc2ccc(Cl)c(F)c23)c2nc(c[nH]2)-c2ccc(NC(=O)OC)cc2N1` (single isomer, unassigned) [Example 32d] as the compound, how does the Ki read?
Answer: > 875 nM

Question: `COC(=O)Nc1ccc2c(c1)NC(=O)CCCC[C@H](C(=O)N1CC[C@@]3(C1)OC(=O)Nc1ccc(Cl)cc13)c1nc-2c[nH]1` (single isomer, unassigned) [Example 1b] was tested. Which Ki did it give?
Answer: 258 nM

Question: With `CCOC(=O)C1CCCCC(C(=O)N2CCC[C@@]3(C2)OC(=O)Nc2ccc(Cl)c(F)c23)c2cc(ccn2)-c2cc(F)ccc2N1` (single isomer, unassigned) [Example 34d] as the compound, how does the Ki read?
Answer: > 875 nM

Question: How did the Ki turn out when `COC(=O)Nc1ccc2c(c1)NC(=O)CCCC[C@H](C(=O)N1CC[C@@]3(C1)OC(=O)Nc1ccc(Cl)c(F)c13)c1cccc-2n1` (single isomer, unassigned) [Example 23a] was run?
Answer: > 875 nM

Question: Which Ki does the source give for `COC(=O)Nc1ccc2c(c1)NC(=O)[C@H](C)CCC[C@H](NC(=O)N1CCC[C@@]3(C1)OC(=O)Nc1ccc(Cl)cc13)c1cc-2ccn1` [Example 40, methyl ((5R,9S)-9-((R)-6-chloro-2-oxo-1,2-dihydrospiro[benzo[d][1,3]oxazine-4,3′-piperidine]-1′-carboxamido)-5-methyl-4-oxo-3-aza-1(4,2)-pyridina-2(1,2)-benzenacyclononaphane-2^4-yl)carbamate] here?
Answer: > 5000 nM

Question: Which Ki does the source give for `COC(=O)Nc1ccc2c(c1)NC(=O)CCCC[C@H](C(=O)N1CC[C@@]3(C1)OC(=O)Nc1ccc(Cl)c(F)c13)c1nc-2c(C)[nH]1` [Example 13a, methyl ((S,Z)-9-((R)-6-chloro-5-fluoro-2-oxo-1,2-dihydrospiro[benzo[d][1,3]oxazine-4,3′-pyrrolidine]-1′-carbonyl)-1^5-methyl-4-oxo-1^1H-3-aza-1(4,2)-imidazola-2(1,2)-benzenacyclononaphane-2^4-yl)carbamate] here?
Answer: 195 nM
